Measurements taken from patent US20070282004A1, “Use of a Cyclopentenone Prostaglandin for Delaying for the Onset and/or Preventing the Continuation of Labour” (Imperial College Innovations Limited, priority 2003, published 2007).

Assays:
NF-κB [1] = biological target: T1, NF-κB (Homo sapiens, UniProt P19838+Q04206); experiment: EMSA of NF-κB DNA binding in nuclear extracts of treated amnion cells; type: cell-based; details: amnion cells treated with 15d-PGJ2 in the presence of the PPAR-γ inhibitor
T1 construct: nuclear protein extracts from myometrial cells; endogenous in cells; host or cells: primary human myometrial cells (term, passage 1-4)
T1 sequence (Q04206 whole entry): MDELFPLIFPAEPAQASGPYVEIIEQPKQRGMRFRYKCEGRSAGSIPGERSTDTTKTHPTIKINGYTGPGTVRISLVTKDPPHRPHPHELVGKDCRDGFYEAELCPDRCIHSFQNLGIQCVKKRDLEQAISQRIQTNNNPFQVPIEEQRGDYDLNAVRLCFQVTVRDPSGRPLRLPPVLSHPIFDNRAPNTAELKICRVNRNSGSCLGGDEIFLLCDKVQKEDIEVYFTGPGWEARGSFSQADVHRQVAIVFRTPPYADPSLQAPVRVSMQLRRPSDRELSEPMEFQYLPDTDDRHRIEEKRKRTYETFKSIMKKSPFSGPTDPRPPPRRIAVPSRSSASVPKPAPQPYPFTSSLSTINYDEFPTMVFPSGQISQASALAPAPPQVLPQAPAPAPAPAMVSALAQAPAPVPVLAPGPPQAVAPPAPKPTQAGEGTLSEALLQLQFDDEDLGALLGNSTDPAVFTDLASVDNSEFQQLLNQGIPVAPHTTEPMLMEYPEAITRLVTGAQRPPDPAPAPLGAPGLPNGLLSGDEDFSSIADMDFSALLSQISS
T1 sequence (P19838 1-433 limits assumed): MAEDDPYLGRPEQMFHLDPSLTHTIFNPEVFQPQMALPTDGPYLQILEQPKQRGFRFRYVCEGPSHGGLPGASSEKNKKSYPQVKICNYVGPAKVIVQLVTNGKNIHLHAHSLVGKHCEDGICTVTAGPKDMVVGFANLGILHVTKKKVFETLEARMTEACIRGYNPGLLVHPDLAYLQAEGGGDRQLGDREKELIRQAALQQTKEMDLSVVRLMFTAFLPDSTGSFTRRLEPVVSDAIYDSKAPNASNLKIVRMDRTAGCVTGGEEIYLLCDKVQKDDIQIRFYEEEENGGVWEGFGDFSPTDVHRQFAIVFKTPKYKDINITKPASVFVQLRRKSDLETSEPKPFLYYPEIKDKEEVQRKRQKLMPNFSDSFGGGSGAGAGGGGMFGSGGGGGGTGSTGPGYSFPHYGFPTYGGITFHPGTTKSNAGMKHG
Protocol: (§1) Placentae were obtained from patients at term either at elective Caesarean section prior to labour (L−) or following spontaneous labour onset and vaginal delivery (L+). Amnion cells were prepared as described in Bennett et al., (1989). Briefly, the amnion was separated from the placenta, washed 3× in PBS, cut into strips, and incubated in 0.5 mM EDTA in PBS for 15 min. The strips were washed in PBS 2× and digested with 2.5 mg/ml dispase in serum-free DMEM for 35 min at 37° C. The amnion was then shaken vigorously in DMEM, 10% FCS to dissociate the cells, the remaining strips discarded, and the cell suspension pelleted at 175 g for 10 min and cultured in DMEM, 10% FCS (Sigma), 1% L-glutamine, 1% penicillin-streptomycin.
(§2) Nuclear and cytosolic protein extracts were obtained from cultured amnion cells as described by Schreiber et al (1989). For nuclear/cytosolic fractionation, confluent cell monolayers were scraped and lysed using a buffer containing 10 mM HEPES, 10 mM KCl, 0.1 mM EDTA, 0.1 mM EGTA, 2 mM DTT, 1% (v/v) NP-40 and complete protease inhibitor tablets (CPIs, Roche), diluted to manufacturer's instructions. Cell lysates were incubated on ice for 10 min and NP-40 added to a final concentration of 1% (v/v). Lysates were vortexed for 10 secs and centrifuged for 30 secs at 4° C., 12000 g. The supernatants were retained as the cytosolic protein extracts. The pellets were resuspended in buffer containing 10 mM HEPES, 10 mM KCl, 0.1 mM EDTA, 0.1 mM EGTA, 2 mM DTT, 400 mM NaCl, 1% NP-40 (v/v) and CPIs. Samples were shaken vigorously for 15 min in an ice bath. The nuclear protein extracts were obtained in the supernatant following a 5 min centrifugation at 4° C., 12000 g.
(§3) Sense and antisense strands (175 nmole/ml each) were incubated in annealing buffer (10 mM Tris-HCl pH7.5, 100 mM NaCl, 1 mM EDTA) for 10 min at 65° C., and allowed to cool at room temperature for 2 h. 3.5 pmole double-stranded oligonucleotides were end-labelled with 0.37 MBq ^32P(γATP) by incubating for 30 min at 37° C. with T4 polynucleotide kinase. Labelled oligonucleotides were recovered by centrifugation at 3000 rpm for 2 min through MicroSpin G-25 or G-50 sephadex columns (Amersham Biosciences).
(§4) 3-5 μg protein extracts were incubated on ice for 1 h with non-radiolabelled non-specific oligonucleotide (poly(dI-dC) or Oct-1) in a binding buffer (20% (v/V) glycerol, 5 mM MgCl2, 2 mM EDTA, 50 mM Tris-HCl pH7.5, 250 mM NaCl, 2 mM DTT), followed by a 45 min incubation with 0.035 pmole ^32P(γ(ATP)-end labelled oligonucleotide probes:
(§5) Oct-1 or SP-1 consensus sequences were used as a controls for a NF-κB-specific effect. The resulting protein/DNA complexes were separated in a 4% acrylamide gel, the gel dried under vacuum at 80° C. and exposed to X-ray film. For supershift analysis, samples were incubated with 2 μg antibodies for 30 min on ice prior to incubation with oligonucleotides. Non-radio-labelled oligonucleotides were used at 100-fold molar excess for specific and non-specific competition for DNA binding. Reagents for EMSA were obtained from Promega Life Sciences, Delta House, Chilworth Research Centre, Southampton SO16 7NS, United Kingdom.

PPAR-γ = biological target: T2, PPAR-γ (Homo sapiens, UniProt P37231); details: covalent modification of Cys285 (Leesnitzer et al., 2002); cited from earlier work
T2 sequence (P37231 1-505): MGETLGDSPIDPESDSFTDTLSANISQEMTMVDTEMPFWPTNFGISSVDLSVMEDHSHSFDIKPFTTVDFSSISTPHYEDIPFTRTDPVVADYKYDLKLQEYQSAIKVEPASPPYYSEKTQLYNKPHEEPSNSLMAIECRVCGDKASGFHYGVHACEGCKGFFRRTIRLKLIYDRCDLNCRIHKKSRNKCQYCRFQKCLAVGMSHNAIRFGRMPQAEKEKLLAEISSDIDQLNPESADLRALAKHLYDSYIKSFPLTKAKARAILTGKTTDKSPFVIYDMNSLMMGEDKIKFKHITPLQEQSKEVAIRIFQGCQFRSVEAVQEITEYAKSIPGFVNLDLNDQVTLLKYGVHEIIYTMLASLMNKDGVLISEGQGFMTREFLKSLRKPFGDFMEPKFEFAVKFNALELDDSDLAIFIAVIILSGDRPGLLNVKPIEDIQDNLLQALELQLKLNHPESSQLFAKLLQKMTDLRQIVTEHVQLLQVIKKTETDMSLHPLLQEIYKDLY

NF-κB [2] = biological target: T1, NF-κB; experiment: EMSA of NF-κB DNA binding in nuclear extracts of treated myometrial cells; type: cell-based; details: myometrial cells
Protocol: (§6) Myometrial tissue was collected at term from the upper margin of uterine incision at the time of lower segment caesarean section either prior to the onset of labour (L−) or […] (L+). L+ samples were collected by Dr Mark Johnson and Dr S Soorrana at Chelsea & Westminster Hospital. Myometrial tissue was dissected, rinsed in PBS, and digested in serum-free DMEM containing 15 mg/ml collagenase 1A (Sigma), 15 mg/ml collagenase X, and 50 mg/ml bovine serum albumin for 45 min at 37° C. The cell suspension was filtered through a cell strainer, centrifuged at 400 g for 5 min, and the pellet re-suspended and plated out in DMEM, 10% FCS (Helena BioScience), 1% L-glutainine, 1% penicillin-streptomycin. Cells were used between passage numbers 1-4.
as §2, §3, §4, §5

NF-κB [3] = experiment: NF-κB-dependent luciferase reporter (κB.BG.Luc) in amnion cells; type: cell-based, human; details: L− or L+ amnion cells, treated 2 h, IL-1β 1 ng/ml 6 h
Protocol: . Values are normalised for b-gal reporter activity.
as §1
pGL3.6κB.BG.luc was the reporter construct used to assess NF-κB-mediated transcription, while the mutant pGL3.6κBmut.luc and empty pGL3.BG.luc were used as controls (Schwarzer et al., 1998).
pGL3.6κB.BG.luc: a NF-κB-dependent reporter construct with 6 copies of the NF-κB binding site. It contains two tandem repeats of the sequence 5′-GGG GAC TTT C CC TGGGGACTTTCCCTGGGGACTTTCCC-3′, which contains three copies of the decameric NF-κB binding site (underlined) upstream of a minimal β-globin promoter driving a luciferase gene.
Cells were co-transfected with the renilla vector pRL-CMV or β-galactosidase vector pCH110 as internal controls for transfection efficiencies.

COX-2 = experiment: Western immunoblot of IL-1β-induced COX-2 protein in myometrial cells; type: cell-based, human; details: treated 2 h, IL-1β 6 h
Protocol: as §6
Nuclear and cytosolic protein extracts were obtained from cultured amnion cells as described by Schreiber et al (1989). […]
Protein samples (20-70 μg) were mixed with Laemmli sample buffer (1:1) containing β-mercaptoethanol (5%), and boiled for 5 min. […] The blots were then incubated with HRP-conjugated secondary antibody (diluted 1:2000 in 1% non-fat milk in PBS-T buffer) for 1 h and washed three times (10 min each) in PBS-T. Signal detection was achieved using enhanced chemi-luminescence (ECL plus system, Amersham Pharmacia Biotech) according to manufacturer's instructions. […]

PPARα = details: GAL4 chimera transfection system (Kehrer et al., 2001); cited from earlier work

| SMILES | Alleviation of 15d-PGJ2 inhibition of NF-κB DNA binding (NF-κB [1]) | Alleviation of 15d-PGJ2 inhibition of NF-κB DNA binding (NF-κB [1]; listed as GW9662) | Binding to PPAR-γ (PPAR-γ) | NF-κB DNA binding (EMSA) (NF-κB [2]; 10-100 μM concentrations) | IL-1β-induced NF-κB DNA binding (EMSA) (NF-κB [2]; treated 2 h, then IL-1β 15 min) | IL-1β-induced NF-κB transcriptional activity (κB.BG.Luc reporter) (NF-κB [3]) | IL-1β-induced COX-2 expression (COX-2) | Doses that transactivate PPARα (PPARα) |
| --- | --- | --- | --- | --- | --- | --- | --- | --- |
| O=C(Nc1ccccc1)c1cc([N+](=O)[O-])ccc1Cl [GW-9662, reference compound] | failed to alleviate | does not alleviate | binds irreversibly | – | – | – | – | – |
| Cc1cccc(Nc2cc(Cl)nc(SCC(=O)O)n2)c1C [WY-14643, reference compound] | – | – | – | had no effect | do not inhibit | did not | not | 5 to 25 µM |
